Values of other authors in patent publication US10987332B2, “Sprayable aqueous composition comprising glyceryl trinitrate” (G. POHL-BOSKAMP GMBH & CO. KG, priority 2013, dated 2021).

What was measured:
Sprague-Dawley rats [1] = settings: RIP (Modules 2-4)
Sprague-Dawley rats [2] = settings: rat, in vivo

Structure (SMILES) | VPB-Score (Sprague-Dawley rats [1]) | Infarct size (Sprague-Dawley rats [2]) | solubility in water
O=[N+]([O-])O[C@H]1CO[C@H]2[C@@H]1OC[C@H]2O[N+](=O)[O-] [ISDN, isosorbide dinitrate] | 4.57 | 7.59±4.38% | –
O=[N+]([O-])OCC(CO[N+](=O)[O-])O[N+](=O)[O-] [NTG, nitroglycerin] | – | – | about 1 mg/ml
